In BindingDB's records for patent US20250313563 (The Broad Institute, 2025) one finds IC50 data, which are given here for 33 molecules.

Test [1] has as its target Glycogen synthase kinase-3 beta (Homo sapiens, UniProt P49841). The test is described as follows: TR-FRET Assay. In a few lines: (§1)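 Kinase activity, measured after a 30-minute compound preincubation, was stopped with EDTA and quantified by TR-FRET using a Tb-labelled pSer641 antibody paired with streptavidin-d2.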
For test [2], the target named is Glycogen synthase kinase-3 alpha (Homo sapiens, UniProt P49840). The test is described as follows: TR-FRET Assay. In outline: as §1
Glycogen synthase kinase-3 alpha, sequence (P49840 whole entry): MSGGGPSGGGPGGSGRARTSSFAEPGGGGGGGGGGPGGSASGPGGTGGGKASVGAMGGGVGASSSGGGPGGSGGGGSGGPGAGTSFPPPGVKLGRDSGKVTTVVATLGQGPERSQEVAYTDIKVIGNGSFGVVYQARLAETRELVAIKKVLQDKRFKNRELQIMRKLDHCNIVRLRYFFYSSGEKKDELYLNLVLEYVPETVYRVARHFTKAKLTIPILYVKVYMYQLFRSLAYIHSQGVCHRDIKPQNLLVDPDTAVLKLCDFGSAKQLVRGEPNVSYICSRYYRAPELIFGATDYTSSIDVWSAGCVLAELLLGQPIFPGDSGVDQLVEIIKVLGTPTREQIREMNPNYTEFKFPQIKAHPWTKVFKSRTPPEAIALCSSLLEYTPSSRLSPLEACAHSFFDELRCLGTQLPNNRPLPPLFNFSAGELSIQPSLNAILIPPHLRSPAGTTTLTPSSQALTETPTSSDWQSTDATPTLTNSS

Several values for one entry are separate records, joined by “and”; a condition that tells them apart may be missing. Identical values can stand only once.

Glycogen synthase kinase-3 beta, sequence (P49841 whole entry): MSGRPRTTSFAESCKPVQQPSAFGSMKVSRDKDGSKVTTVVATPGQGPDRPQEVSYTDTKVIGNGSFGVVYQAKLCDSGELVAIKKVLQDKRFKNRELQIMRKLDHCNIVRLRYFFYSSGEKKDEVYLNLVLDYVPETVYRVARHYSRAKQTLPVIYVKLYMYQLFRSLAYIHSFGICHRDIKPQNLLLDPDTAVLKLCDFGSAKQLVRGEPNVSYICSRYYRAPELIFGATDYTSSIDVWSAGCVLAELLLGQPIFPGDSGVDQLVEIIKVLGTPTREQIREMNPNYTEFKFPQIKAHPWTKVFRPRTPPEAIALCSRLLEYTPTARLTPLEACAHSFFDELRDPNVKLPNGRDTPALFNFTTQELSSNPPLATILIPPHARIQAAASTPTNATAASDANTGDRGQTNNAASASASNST

For `CCC1(c2cccc(CN(C)C(=O)COC)c2)C2=CN=NC2NC2=C1C(=O)CC(C)(C)C2` (stereo unspecified) [US20250313563, Compound 865196], the IC50 in test [1] is > 5000 nM; in test [2], 100 to 1000 nM.
As to `Cn1ccc(S(=O)(=O)N2CCC3(CC2)C2=C(N=NC2)NC2=C3C(=O)CC(C)(C)C2)n1` [US20250313563, Compound 901471], the IC50 in test [1] is < 100 nM and 1000 to 5000 nM; in test [2] it was < 100 nM and 100 to 1000 nM.
For `Cc1cc(S(=O)(=O)N2CCC3(CC2)C2=C(N=NC2)NC2=C3C(=O)CC(C)(C)C2)ccn1` [US20250313563, Compound 947481], the IC50 in test [1] and in test [2] was < 100 nM throughout.
`CC1(C)CC(=O)C2=C(C1)NC1=C(CN=N1)C21CCN(S(=O)(=O)c2cnn3c2CCCC3)CC1` [US20250313563, Compound 947474]: the IC50 in test [1] and in test [2] was < 100 nM in each case.
Take `CC1(C)CC(=O)C2=C(C1)NC1=C(CN=N1)C21CCN(S(=O)(=O)c2ccn(-c3ccccc3)n2)CC1` [US20250313563, Compound 947461]: the IC50 in test [1] and in test [2] was < 100 nM in each case.
For the molecule `CC[C@]1(c2cccc(-c3c(C)nn(C)c3C)c2)C2=C(CC(C)(C)NC2=O)NC2N=NC(C(F)(F)F)=C21` (stereo partly specified) [US20250313563, Compound 948417], the IC50 is 1000 to 5000 nM in test [1] and 100 to 1000 nM in test [2].
For `CC1(C)CC(=O)C2=C(C1)NC1=C(CN=N1)C21CCN(S(=O)(=O)c2ccccc2C(F)(F)F)CC1` [US20250313563, Compound 945667] the same measures were 100 to 1000 nM and < 100 nM.
The corresponding values for `Cc1nn(C)c(C)c1S(=O)(=O)N1CCC2(CC1)C1=C(N=NC1)NC1=C2C(=O)CC(C)(C)C1` [US20250313563, Compound 947257] are 1000 to 5000 nM and 100 to 1000 nM.
The corresponding values for `CC[C@]1(c2cccc(-c3ccnc(C)c3)c2)C2=C(N=NC2)NC2=C1C(=O)[C@H]1CC[C@@H]2C1` [US20250313563, Compound 943917] are 100 to 1000 nM and < 100 nM.
`CC[C@]1(c2cccc(-c3ccnn3C)c2)C2=CN=NC2NC2=C1C(=O)N[C@]1(CCCOC1)C2` (stereo partly specified) [US20250313563, Compound 948365]: the IC50 in test [1] was > 5000 nM; in test [2], 1000 to 5000 nM.
In the case of `Cc1cc(C)cc(C(=O)N2CC3(C2)C[C@@]2(CO3)C3=C(N=NC3)NC3=C2C(=O)CC(C)(C)C3)c1` [US20250313563, Compound 948223], the IC50 in test [1] was < 100 nM and 100 to 1000 nM; in test [2] it was < 100 nM and 100 to 1000 nM.
Consider `CC[C@]1(c2cccc([C@@H]3CCOC3)c2)C2=CN=NC2NC2=C1C(=O)CC(C)(C)C2` (stereo partly specified) [US20250313563, Compound 889557], for which the 50% inhibitory concentration (IC50) in test [1] and in test [2] was < 100 nM throughout.
For the molecule `CC1(C)CC2=C(C(=O)[C@@H]1F)[C@]1(CC[C@H](C(F)(F)F)CC1)C1=CN=NC1N2` (stereo partly specified) [US20250313563, Compound 918283], the IC50 in test [1] and in test [2] was < 100 nM each time.
Consider `CC[C@]1(c2cccc(N3CCC3(C)C)c2)C2=CN=NC2NC2=C1C(=O)CC(C)(C)C2` (stereo partly specified) [US20250313563, Compound 913140], for which the values for the IC50 in test [1] and in test [2] were 100 to 1000 nM and < 100 nM, respectively.
`CC[C@@]1(c2cccc(N(C)c3cccc(C)n3)c2)C2=CN=NC2NC2=C1C(=O)CC(C)(C)C2` (stereo partly specified) [US20250313563, Compound 932656]: the IC50 in test [1] and in test [2] was > 5000 nM each time.
`CCC1(c2cccc(-c3c(C)cnn3C)c2)C2=CN=NC2NC2=C1C(=O)CC(C)(C)C2` (stereo unspecified) [US20250313563, Compound 947491]: the IC50 in test [1] and in test [2] was < 100 nM each time.
In the case of `Cc1ccc(C)c(S(=O)(=O)N2CCC3(CC2)C2=C(N=NC2)NC2=C3C(=O)CC(C)(C)C2)c1` [US20250313563, Compound 947471], the IC50 in test [1] was 100 to 1000 nM; in test [2], < 100 nM.
The corresponding values for `CC1(C)CC(=O)C2=C(C1)NC1=C(CN=N1)C21CN(S(=O)(=O)c2ccccn2)C1` [US20250313563, Compound 913262] are < 100 nM and < 100 nM.
For `CC1CCCC12C1=C(N=NC1)NC1=C2C(=O)CC(C)(C)C1` (stereo unspecified) [US20250313563, Compound 826765] the same measures were 1000 to 5000 nM and 100 to 1000 nM.
The corresponding values for `CC1(C)CC(=O)C2=C(C1)NC1=C(CN=N1)C21CCN(S(=O)(=O)c2cnccc2C(F)(F)F)CC1` [US20250313563, Compound 947463] are 100 to 1000 nM and < 100 nM.
Consider `CCC1(c2cccc(-c3nc(C)ncc3C)c2)C2=CN=NC2NC2=C1C(=O)CC(C)(C)C2` (stereo unspecified) [US20250313563, Compound 948091], for which the IC50 in test [1] was 100 to 1000 nM; in test [2], < 100 nM.
As for `CC[C@]1(c2cccc(-c3ccnc(C)c3)c2)C2=C(CC3(CCOCC3)NC2=O)NC2N=NC(C)=C21` (stereo partly specified) [US20250313563, Compound 948513], the IC50 in test [1] is 100 to 1000 nM; in test [2], < 100 nM.
The corresponding values for `CC[C@@]1(c2cccc(-c3ccnn3C)c2)C2=CN=NC2NC2=C1C(=O)NC1(CCS(=O)(=O)CC1)C2` (stereo partly specified) [US20250313563, Compound 949394] are 100 to 1000 nM and < 100 nM.
The corresponding values for `CCC1(c2cccc(N3CC4CCC3C4)c2)C2=CN=NC2NC2=C1C(=O)CC(C)(C)C2` (stereo unspecified) [US20250313563, Compound 885110] are 100 to 1000 nM and < 100 nM.
On to `CCC1(c2cccc(-c3c(C)nnn3C)c2)C2=CN=NC2NC2=C1C(=O)CC(C)(C)C2` (stereo unspecified) [US20250313563, Compound 943996], for which the IC50 in test [1] is < 100 nM and 100 to 1000 nM; in test [2], < 100 nM.
`CC[C@]1(c2cccc(N(C)c3ncccn3)c2)C2=C(CC(C)(C)NC2=O)NC2N=NC(C(F)F)=C21` (stereo partly specified) [US20250313563, Compound 951736]: the results for the IC50 in test [1] and in test [2] were 100 to 1000 nM and < 100 nM, respectively.
For `CC[C@@]1(c2cccc(Br)c2)C2=CN=NC2NC2=C1C(=O)C[C@@H](C)C2` (stereo partly specified) [US20250313563, Compound 810485] the same measures were > 5000 nM and > 5000 nM.
In the case of `CCC1(c2cccc(-c3ccccc3)c2)C2=CN=NC2NC2=C1C(=O)CC(C)(C)C2` (stereo unspecified) [US20250313563, Compound 789514], the IC50 in test [1] and in test [2] was 100 to 1000 nM each time.
Turning to `CC1(C)CC(=O)C2=C(C1)NC1=C(CN=N1)[C@]21CCN(S(=O)(=O)c2ccccc2)C1` [US20250313563, Compound 943485], the IC50 is < 100 nM and 1000 to 5000 nM in test [1]; < 100 nM and 100 to 1000 nM in test [2].
Consider `CC[C@]1(c2cccc(-c3ccncc3)c2)C2=CN=NC2NC2=C1C(=O)CC(C)(C)C2` (stereo partly specified) [US20250313563, Compound 801412], for which the IC50 in test [1] and in test [2] was > 5000 nM throughout.
`CC1(C)CC2=C(C(=O)N1)C1(CCN(S(=O)(=O)c3ccc(F)cc3)CC1)C1=C(N=NC1)N2` [US20250313563, Compound 943963]: the IC50 in test [1] and in test [2] was < 100 nM throughout.
With `CC[C@]1(c2cccc(-c3ccnn3C)c2)C2=CN=NC2NC2=C1C(=O)NC1(CCCC1)C2` (stereo partly specified) [US20250313563, Compound 948019], the figures for the IC50 in test [1] and in test [2] were > 5000 nM and 1000 to 5000 nM, respectively.
With `CC1(C)CC2=C(C(=O)N1)[C@@](C)(c1cccc(S(C)(=O)=O)c1)C1=C(N=NC1C1CC1)N2` (stereo partly specified) [US20250313563, Compound 114679], the IC50 in test [1] was 100 to 1000 nM; in test [2], < 100 nM.
